Experimental data as given in paper PMC7206119, “RIP1 inhibition blocks inflammatory diseases but not tumor growth or metastases” (Cell Death and Differentiation, 2019).

How the values were obtained:
Assay in all cases: biochemical
Parameters in all cases: DiscoverX kinase panel, active-site competition binding (KINOMEscan type), percent of control at one concentration
Conditions in all cases: competition binding, percent of control
MAP4K4 = MAP4K4 (Homo sapiens, UniProt O95819)
TRKC = biological target: T1, TRKC (Homo sapiens, UniProt Q16288)
T1 construct: gene NTRK3

IRAK4 = IRAK4 (Homo sapiens, UniProt Q9NWZ3)
SIK = biological target: T2, SIK (Homo sapiens, UniProt P57059)
T2 construct: gene SIK1

HPK1 = biological target: T3, HPK1 (Homo sapiens, UniProt Q92918)
T3 construct: gene MAP4K1

ZAP70 = ZAP70 (Homo sapiens, UniProt P43403)
CSNK1A1L = CSNK1A1L (Homo sapiens, UniProt Q8N752)
CDC2L5 = biological target: T4, CDC2L5 (Homo sapiens, UniProt Q14004)
T4 construct: gene CDK13

CDKL1 = CDKL1 (Homo sapiens, UniProt Q00532)
PIK3CA(H1047L) = PIK3CA(H1047L) (Homo sapiens, UniProt P42336, H1047L)
RET(V804L) = RET(V804L) (Homo sapiens, UniProt P07949, V804L)
MYLK = MYLK (Homo sapiens, UniProt Q15746)
RIPK1 = RIPK1 (Homo sapiens, UniProt Q13546)
TNK2 = TNK2 (Homo sapiens, UniProt Q07912)
FLT3-autoinhibited = FLT3-autoinhibited (Homo sapiens, UniProt P36888)
TSSK1B = TSSK1B (Homo sapiens, UniProt Q9BXA7)
DCAMKL2 = biological target: T5, DCAMKL2 (Homo sapiens, UniProt Q8N568)
T5 construct: gene DCLK2

BRAF = BRAF (Homo sapiens, UniProt P15056)
RET(V804M) = RET(V804M) (Homo sapiens, UniProt P07949, V804M)
TEC = TEC (Homo sapiens, UniProt P42680)
[1] = biological target: T6, RSK1(Kin.Dom.1-N-terminal) (Homo sapiens, UniProt Q15418)
T6 construct: gene RPS6KA1; Kin.Dom.1-N-terminal

Chain of BRAF (P15056 whole entry): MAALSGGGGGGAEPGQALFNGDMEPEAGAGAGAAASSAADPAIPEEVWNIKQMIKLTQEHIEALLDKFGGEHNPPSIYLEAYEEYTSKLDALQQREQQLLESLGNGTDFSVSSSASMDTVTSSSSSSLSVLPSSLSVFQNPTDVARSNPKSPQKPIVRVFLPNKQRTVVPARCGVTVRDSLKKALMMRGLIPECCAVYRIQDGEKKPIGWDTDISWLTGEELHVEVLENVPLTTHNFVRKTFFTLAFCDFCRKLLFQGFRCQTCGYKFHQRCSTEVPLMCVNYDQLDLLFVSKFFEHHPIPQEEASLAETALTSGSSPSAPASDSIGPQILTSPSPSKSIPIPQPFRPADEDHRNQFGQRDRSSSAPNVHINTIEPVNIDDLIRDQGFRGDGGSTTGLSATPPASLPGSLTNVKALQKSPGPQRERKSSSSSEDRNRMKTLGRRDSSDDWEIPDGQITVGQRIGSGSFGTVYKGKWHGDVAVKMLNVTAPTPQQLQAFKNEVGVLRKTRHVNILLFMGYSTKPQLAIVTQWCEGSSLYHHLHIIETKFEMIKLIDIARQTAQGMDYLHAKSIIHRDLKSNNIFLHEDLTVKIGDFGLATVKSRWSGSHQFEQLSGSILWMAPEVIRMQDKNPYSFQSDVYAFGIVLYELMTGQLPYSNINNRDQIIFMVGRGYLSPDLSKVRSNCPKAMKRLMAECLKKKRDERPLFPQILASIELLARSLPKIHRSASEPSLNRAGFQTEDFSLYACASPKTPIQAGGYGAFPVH
Chain of MAP4K4 (O95819 whole entry): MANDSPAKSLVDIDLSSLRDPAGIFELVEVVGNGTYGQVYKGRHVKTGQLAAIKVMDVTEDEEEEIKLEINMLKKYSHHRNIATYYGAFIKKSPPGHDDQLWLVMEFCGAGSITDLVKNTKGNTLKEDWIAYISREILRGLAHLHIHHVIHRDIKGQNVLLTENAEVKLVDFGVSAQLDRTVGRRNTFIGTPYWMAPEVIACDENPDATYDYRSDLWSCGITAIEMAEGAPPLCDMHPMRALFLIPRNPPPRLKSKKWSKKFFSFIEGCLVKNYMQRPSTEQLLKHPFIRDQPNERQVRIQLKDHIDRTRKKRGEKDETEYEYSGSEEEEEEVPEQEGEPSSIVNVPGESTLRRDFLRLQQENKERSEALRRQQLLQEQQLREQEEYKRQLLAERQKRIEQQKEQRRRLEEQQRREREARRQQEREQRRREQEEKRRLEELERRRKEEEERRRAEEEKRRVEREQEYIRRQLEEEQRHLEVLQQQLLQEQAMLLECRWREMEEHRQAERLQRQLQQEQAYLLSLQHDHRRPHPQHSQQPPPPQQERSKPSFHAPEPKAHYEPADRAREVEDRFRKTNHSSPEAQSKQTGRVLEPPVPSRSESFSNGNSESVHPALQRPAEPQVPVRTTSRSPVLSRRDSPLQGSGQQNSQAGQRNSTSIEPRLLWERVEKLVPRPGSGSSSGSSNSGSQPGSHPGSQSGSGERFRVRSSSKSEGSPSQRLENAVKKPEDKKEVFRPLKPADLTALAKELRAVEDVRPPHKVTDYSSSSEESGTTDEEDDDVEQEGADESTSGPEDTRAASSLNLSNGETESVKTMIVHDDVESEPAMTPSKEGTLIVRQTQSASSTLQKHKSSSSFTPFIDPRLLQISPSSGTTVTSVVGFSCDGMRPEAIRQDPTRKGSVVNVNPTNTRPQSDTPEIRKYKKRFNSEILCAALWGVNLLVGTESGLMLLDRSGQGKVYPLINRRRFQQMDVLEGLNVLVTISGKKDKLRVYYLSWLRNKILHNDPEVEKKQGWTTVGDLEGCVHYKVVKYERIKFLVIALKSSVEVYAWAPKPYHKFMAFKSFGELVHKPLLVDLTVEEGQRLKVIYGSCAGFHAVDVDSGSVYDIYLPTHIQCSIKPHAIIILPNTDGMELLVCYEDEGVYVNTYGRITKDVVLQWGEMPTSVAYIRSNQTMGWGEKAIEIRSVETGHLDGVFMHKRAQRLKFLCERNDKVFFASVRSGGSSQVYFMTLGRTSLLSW
Chain of TEC (P42680 whole entry): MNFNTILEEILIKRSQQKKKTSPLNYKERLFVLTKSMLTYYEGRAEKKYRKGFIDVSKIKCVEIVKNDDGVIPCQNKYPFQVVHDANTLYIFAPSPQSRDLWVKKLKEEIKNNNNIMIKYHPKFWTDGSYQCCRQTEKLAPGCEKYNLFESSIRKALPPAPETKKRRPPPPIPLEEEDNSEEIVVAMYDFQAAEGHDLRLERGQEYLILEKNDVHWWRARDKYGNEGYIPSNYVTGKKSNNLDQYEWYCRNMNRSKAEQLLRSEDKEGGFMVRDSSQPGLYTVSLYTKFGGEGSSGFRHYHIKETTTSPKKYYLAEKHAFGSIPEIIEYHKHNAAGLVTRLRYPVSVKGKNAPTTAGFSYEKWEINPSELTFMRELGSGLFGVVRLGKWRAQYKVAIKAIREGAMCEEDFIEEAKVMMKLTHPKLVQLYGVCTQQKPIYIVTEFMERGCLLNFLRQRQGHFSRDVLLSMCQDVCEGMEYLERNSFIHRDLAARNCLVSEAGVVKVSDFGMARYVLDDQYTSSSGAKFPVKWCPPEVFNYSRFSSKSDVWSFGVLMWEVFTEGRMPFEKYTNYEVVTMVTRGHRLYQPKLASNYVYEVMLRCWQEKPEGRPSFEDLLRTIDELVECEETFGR
Chain of ZAP70 (P43403 whole entry): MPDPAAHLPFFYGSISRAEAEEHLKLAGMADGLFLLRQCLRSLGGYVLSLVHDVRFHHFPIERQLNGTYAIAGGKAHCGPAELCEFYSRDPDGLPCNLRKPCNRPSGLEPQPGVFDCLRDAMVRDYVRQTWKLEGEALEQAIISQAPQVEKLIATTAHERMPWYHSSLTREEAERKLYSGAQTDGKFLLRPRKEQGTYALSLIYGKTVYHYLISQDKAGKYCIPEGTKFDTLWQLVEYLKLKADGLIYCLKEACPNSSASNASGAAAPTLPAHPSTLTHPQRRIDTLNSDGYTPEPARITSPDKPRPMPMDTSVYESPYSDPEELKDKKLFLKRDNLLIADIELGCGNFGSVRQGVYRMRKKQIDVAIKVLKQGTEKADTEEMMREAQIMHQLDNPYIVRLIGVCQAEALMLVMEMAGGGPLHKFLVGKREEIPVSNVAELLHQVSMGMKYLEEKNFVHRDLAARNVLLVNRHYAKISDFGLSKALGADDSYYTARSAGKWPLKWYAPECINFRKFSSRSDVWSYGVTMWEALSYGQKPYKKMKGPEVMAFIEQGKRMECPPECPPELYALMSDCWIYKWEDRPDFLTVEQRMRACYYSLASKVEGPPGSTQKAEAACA
Chain of RET(V804L) (P07949 whole entry V804L): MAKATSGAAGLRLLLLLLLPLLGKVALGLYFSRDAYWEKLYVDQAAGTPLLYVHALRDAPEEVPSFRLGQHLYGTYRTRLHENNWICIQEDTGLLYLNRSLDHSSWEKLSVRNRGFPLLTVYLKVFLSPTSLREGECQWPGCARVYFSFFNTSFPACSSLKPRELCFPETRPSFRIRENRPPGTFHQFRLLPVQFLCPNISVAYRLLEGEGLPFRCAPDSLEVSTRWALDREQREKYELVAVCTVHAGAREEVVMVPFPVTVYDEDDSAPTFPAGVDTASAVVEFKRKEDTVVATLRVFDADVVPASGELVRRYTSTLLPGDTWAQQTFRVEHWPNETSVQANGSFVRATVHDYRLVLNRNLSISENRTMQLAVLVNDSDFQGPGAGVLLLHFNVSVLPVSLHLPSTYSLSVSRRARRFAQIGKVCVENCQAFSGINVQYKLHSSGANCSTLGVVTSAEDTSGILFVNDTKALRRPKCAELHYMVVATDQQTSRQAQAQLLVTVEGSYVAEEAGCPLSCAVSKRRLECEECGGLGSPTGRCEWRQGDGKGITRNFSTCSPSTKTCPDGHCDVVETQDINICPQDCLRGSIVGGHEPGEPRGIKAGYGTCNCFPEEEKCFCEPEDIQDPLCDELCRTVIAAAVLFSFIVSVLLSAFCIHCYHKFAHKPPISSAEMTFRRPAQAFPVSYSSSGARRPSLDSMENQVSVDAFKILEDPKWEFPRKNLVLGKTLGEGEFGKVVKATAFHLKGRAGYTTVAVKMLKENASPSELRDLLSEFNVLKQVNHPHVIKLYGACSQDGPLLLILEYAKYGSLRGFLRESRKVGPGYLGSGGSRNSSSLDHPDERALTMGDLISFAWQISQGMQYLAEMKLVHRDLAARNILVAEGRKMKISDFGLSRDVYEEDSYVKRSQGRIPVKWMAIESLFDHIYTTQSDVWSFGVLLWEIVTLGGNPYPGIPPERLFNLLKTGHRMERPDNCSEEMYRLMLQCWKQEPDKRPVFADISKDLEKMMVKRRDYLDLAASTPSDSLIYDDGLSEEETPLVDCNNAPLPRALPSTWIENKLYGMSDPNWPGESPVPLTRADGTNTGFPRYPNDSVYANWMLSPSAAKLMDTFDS
Chain of CSNK1A1L (Q8N752 whole entry): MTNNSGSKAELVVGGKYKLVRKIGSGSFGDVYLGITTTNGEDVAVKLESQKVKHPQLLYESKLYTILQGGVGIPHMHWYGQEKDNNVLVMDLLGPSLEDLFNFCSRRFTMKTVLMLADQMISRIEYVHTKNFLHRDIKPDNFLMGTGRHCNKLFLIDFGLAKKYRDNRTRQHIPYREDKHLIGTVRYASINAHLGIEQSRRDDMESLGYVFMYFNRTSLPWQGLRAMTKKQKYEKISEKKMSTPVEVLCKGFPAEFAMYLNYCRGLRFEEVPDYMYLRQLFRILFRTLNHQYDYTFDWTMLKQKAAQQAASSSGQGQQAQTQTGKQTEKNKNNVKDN
Chain of RET(V804M) (P07949 whole entry V804M): as the sequence (P07949 whole entry V804L) above, with L804M counted along it

In the case of `COc1cc2c(cn1)N(C)C(=O)[C@@H](NC(=O)c1nc3n(n1)[C@H](c1ccccc1)CC3)CC2` [GNE684, (S)-N-((S)-7-methoxy-1-methyl-2-oxo-2,3,4,5-tetrahydro-1H-pyrido[3,4-b]azepin-3-yl)-5-phenyl-6,7-dihydro-5H-pyrrolo[1,2-b][1,2,4]triazole-2-carboxamide], the remaining binding at 10 µM (MAP4K4) is reported as 73%, the remaining binding at 10 µM (TRKC) is reported as 69% and the remaining binding at 10 µM (IRAK4) is reported as 100%. For the same compound, the remaining binding at 10 µM (SIK) was 100%, the remaining binding at 10 µM (HPK1) was 98% and the remaining binding at 10 µM (ZAP70) was 100%. For the same compound, the remaining binding at 10 µM (CSNK1A1L) was 100%, the remaining binding at 10 µM (CDC2L5) was 100% and the remaining binding at 10 µM (CDKL1) was 74%. For the same compound, the remaining binding at 10 µM (PIK3CA(H1047L)) was 95%, the remaining binding at 10 µM (RET(V804L)) was 91% and the remaining binding at 10 µM (MYLK) was 99%. It also gave a remaining binding at 10 µM (RIPK1) of 0%, a remaining binding at 10 µM (TNK2) of 100% and a remaining binding at 10 µM (FLT3-autoinhibited) of 100%. The remaining binding at 10 µM (TSSK1B) was 95%, the remaining binding at 10 µM (DCAMKL2) was 95% and the remaining binding at 10 µM (BRAF) was 98%. It also gave a remaining binding at 10 µM (RET(V804M)) of 100%, a remaining binding at 10 µM (TEC) of 100% and a remaining binding at 10 µM [1] of 98%.
